In ChEMBL document CHEMBL1129864, “A new series of selective COX-2 inhibitors: 5,6-diarylthiazolo[3,2-b][1,2,4]triazoles” (Bioorg Med Chem Lett, 1997):

Key:
[1] = target: T1, Prostaglandin G/H synthase 2 (Homo sapiens, UniProt P35354); format: cell-based, CHO
T1 sequence (P35354 whole entry): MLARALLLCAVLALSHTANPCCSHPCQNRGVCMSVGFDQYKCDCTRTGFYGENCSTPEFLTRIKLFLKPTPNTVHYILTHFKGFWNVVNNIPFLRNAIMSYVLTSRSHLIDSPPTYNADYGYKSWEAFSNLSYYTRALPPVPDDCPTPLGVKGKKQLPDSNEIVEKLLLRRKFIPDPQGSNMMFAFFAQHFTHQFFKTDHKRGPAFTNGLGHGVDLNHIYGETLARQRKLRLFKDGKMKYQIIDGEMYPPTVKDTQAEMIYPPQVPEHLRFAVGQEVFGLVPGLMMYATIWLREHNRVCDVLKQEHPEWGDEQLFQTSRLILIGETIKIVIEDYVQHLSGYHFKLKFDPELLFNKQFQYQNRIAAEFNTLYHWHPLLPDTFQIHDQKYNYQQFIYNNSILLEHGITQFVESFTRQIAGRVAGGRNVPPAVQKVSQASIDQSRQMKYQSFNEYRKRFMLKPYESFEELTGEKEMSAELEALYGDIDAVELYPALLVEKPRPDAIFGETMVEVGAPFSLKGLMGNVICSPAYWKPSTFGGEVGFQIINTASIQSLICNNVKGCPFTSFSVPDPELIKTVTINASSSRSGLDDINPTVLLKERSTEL
Description: Tested in vitro for the ability to inhibit Prostaglandin G/H synthase 2 in chinese hamster ovary (CHO) cells

[2] = target: Prostaglandin G/H synthase 1 (Homo sapiens, UniProt P23219)
Description: Tested in vitro for the ability to inhibit Prostaglandin G/H synthase 1 in chinese hamster ovary (CHO) cells

[3] = target: T1, Prostaglandin G/H synthase 2; format: organism-based, Blood
Description: In vivo ability to inhibit Prostaglandin G/H synthase 2 in human whole blood assay

Rattus norvegicus [4] = species on record: Rattus norvegicus; assay: Plasma clearance in rat; format: ADME, organism-based; conditions: in vivo
[5] = Bioavailability at 4 hr after administration of 5 mg/kg dose peroral in rat; format: ADME, organism-based; conditions: in vivo, po
[6] = Maximum concentration at 4 hr after administration of 5 mg/kg dose peroral in rat; format: ADME, organism-based; set-up: dose 5 mg/kg, route oral; conditions: in vivo, po
[7] = Percentage recovery after 3h incubation with rat hapatocytes was determined; format: ADME, organism-based; conditions: hepatocytes, read-out: Recovery
Rattus norvegicus [8] = species on record: Rattus norvegicus; assay: Intrinsic activity in the rat pyresis assay; format: functional
Rattus norvegicus [9] = species on record: Rattus norvegicus; assay: Intrinsic activity in the rat hyperalgesia assay; format: functional; conditions: read-out: ID50 (the source's name)
Rattus norvegicus [10] = assay: Intrinsic activity in the rat paw edema model; format: functional

Prostaglandin G/H synthase 1, sequence (P23219 whole entry): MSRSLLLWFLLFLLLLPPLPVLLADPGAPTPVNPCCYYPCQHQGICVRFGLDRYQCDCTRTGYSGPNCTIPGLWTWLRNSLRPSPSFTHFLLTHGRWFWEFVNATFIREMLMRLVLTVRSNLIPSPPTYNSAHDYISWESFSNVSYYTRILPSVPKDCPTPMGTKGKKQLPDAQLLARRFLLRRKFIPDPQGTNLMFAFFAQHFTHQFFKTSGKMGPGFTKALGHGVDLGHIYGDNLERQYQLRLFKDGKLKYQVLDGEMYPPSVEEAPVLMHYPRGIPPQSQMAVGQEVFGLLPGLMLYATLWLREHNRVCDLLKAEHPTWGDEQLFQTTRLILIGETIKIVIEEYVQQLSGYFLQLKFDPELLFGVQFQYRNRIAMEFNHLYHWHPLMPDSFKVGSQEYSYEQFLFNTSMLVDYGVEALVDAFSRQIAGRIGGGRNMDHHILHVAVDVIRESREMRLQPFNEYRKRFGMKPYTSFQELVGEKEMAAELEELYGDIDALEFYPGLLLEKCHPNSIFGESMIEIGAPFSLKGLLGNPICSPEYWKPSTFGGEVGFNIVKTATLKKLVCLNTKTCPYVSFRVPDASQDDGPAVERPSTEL

Compound | IC50 [1] [nM] | IC50 [2] [nM] | IC50 [3] [nM] | also measured
CS(=O)(=O)c1ccc(-c2sc3ncnn3c2-c2ccc(F)c(F)c2)cc1 | 48 | 30000 | > 30000 | –
CS(=O)(=O)c1ccc(-c2sc3ncnn3c2-c2ccc(F)cc2)cc1 | 36 | 15000 | – | –
CCc1nc2sc(-c3ccc(S(C)(=O)=O)cc3)c(-c3ccccc3)n2n1 | 15 | 2400 | – | –
C=Cc1nc2sc(-c3ccc(S(C)(=O)=O)cc3)c(-c3ccccc3)n2n1 | 6 | 9600 | 4100 | –
Cc1cccc(-c2c(-c3ccc(S(C)(=O)=O)cc3)sc3nc(C(F)(F)F)nn23)c1 | 3 | 610 | – | –
Cc1nc2sc(-c3ccc(S(C)(=O)=O)cc3)c(-c3cccc(F)c3)n2n1 | 150 | > 50000 | 14000 | –
CS(=O)(=O)c1ccc(-c2sc3nncn3c2-c2ccccc2)cc1 | 450 | > 50000 | – | –
CC(C)c1nc2sc(-c3ccc(S(C)(=O)=O)cc3)c(-c3ccccc3)n2n1 | 11 | 600 | – | –
CS(=O)(=O)c1ccc(-c2c(-c3ccccc3)nc3sccn23)cc1 | – | – | – | remaining at 3 h [7]: < 10%
COc1cccc(-c2c(-c3ccc(S(C)(=O)=O)cc3)sc3ncnn23)c1 | 260 | > 50000 | – | –
CS(=O)(=O)c1ccc(-c2sc3ncnn3c2-c2cc(F)cc(F)c2)cc1 | 80 | > 50000 | – | –
CS(=O)(=O)c1ccc(-c2sc3nc(C(F)(F)F)nn3c2-c2cccc(F)c2)cc1 | 13 | 8500 | – | –

More lines, main results first:

IC50 [1] [nM] | IC50 [2] [nM] | IC50 [3] [nM] | Compound | also measured
230 | 2100 | – | CS(=O)(=O)c1ccc(-c2c(-c3ccccc3)sc3nncn23)cc1 | –
20 | > 50000 | 10000 | Cc1nc2sc(-c3ccc(S(C)(=O)=O)cc3)c(-c3ccccc3)n2n1 | –
> 50000 | 9000 | – | CS(=O)(=O)c1ccc(-c2c(-c3ccccc3)sc3nc(C(F)(F)F)nn23)cc1 | –
32 | > 50000 | > 30000 | CS(=O)(=O)c1ccc(-c2c(-c3ccccc3)sc3ncnn23)cc1 | –
22 | > 50000 | 4200 | CS(=O)(=O)c1ccc(-c2sc3ncnn3c2-c2cccc(F)c2)cc1 | –
10 | 43000 | 2300 | CS(=O)(=O)c1ccc(-c2sc3ncnn3c2-c2ccccc2)cc1 | Clearance (Rattus norvegicus [4]): 13 mL/min/kg; bioavailability [5]: ~100%; Cmax [6]: 7.2 µM; remaining at 3 h [7]: > 95%; ED50 (Rattus norvegicus [8]): 1 mg/kg; ED50 (Rattus norvegicus [9]): 1 mg/kg; ED50 (Rattus norvegicus [10]): 1.7 mg/kg
– | 1100 | – | CS(=O)(=O)c1ccc(-c2sc3nc(C(F)(F)F)nn3c2-c2ccccc2)cc1 | –
